Source: patent US7038055B2, “Sulfone derivatives and their use in the treatment of autoimmune diseases and allergies” (SmithKlineBeecham plc, priority 2001, dated 2006)

Key:
MMP-13 = target: T1, MMP-13 (Homo sapiens, UniProt P45452); assay: General MMP Inhibition Assay, fluorescence quench (MMP-13); type: biochemical; details: room temperature
T1 construct: purchased Calbiochem
Method: (§1) General MMP Inhibition Assays:
(§2) Inhibition of matrix metalloprotease activity was determined using a fluorescence quench assay with appropriate substrate. For example, MMP activity was determined using MMP activated using trypsin, according to Lark et al, Connective Tissue Res. 25, 52 (1990). The MMP is incubated at room temperature in a microtitre plate in a total volume of 100 ul, containing 0.15 M Tris Cl, 15 mM CaCl2, 0.2 M NaCl, pH 7.6 (assay buffer); inhibitor at concentrations up to 100 uM, with no more than 2% DMSO final concentration, 10 uM substrate (such as SDP-3815-PI for MMP-1, Peptides International). The MMP concentration is <10 nM, and determined empirically with the appropriate substrate to give at least a 20-fold increase in fluorescence emission in 30 min. Fluorescent excitation wavelength was 355 nm, emission wavelength 400–460 nm, and data points are collected to generate slope (change in fluorescence with time). Percent inhibition for each concentration is calculated from the slope at time zero, and IC50 values from the concentration dependence. MMP-1, 2, 3, 7, 9, 13, 14 may all be assayed in the same manner, using commercially available substrates reported to be effective for each enzyme. Enzymes were obtained from Calbiochem and activated using the same trypsin method.

MMP-3 = target: T2, MMP-3 (Homo sapiens, UniProt P08254); assay: General MMP Inhibition Assay, fluorescence quench (MMP-3); type: biochemical; details: room temperature
T2 construct: purchased Calbiochem
T2 sequence (P08254 100-477, species assumed): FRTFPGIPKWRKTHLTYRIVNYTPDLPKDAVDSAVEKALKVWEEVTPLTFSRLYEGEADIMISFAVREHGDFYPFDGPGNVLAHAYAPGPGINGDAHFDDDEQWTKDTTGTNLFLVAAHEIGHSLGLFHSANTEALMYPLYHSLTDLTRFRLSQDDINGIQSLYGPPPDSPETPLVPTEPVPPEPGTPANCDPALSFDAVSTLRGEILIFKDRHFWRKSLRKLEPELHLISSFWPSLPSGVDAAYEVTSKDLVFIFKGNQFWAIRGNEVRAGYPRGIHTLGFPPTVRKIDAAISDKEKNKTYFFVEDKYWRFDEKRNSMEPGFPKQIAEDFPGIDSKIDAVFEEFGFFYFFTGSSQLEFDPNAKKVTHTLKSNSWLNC
Method: as §1, §2

[1] = target: T3, human recombinant collagenase (Homo sapiens, UniProt P03956); assay: Collagenase Inhibition Assay; type: biochemical; details: 37° C., 18 h, 3H type 1 bovine collagen; read-out: IC50, collagenase inhibition (procedure 2)
T3 construct: made in house; host or cells: E. coli
T3 sequence (P03956 100-469): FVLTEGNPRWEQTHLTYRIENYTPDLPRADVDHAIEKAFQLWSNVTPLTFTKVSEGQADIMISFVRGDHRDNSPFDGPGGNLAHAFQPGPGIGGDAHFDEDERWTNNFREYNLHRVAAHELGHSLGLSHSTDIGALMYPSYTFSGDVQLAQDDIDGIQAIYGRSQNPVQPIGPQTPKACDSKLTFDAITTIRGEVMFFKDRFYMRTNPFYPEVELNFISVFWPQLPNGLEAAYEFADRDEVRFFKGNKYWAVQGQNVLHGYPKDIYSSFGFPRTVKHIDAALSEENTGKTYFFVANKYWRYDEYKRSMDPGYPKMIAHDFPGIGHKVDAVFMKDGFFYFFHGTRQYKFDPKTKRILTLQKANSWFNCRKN
Method: Procedure 2: The ability of test compounds to inhibit matrix metalloproteases was investigated using the following procedures.
Collagenase Inhibition Assay:
The potency of compounds to act as inhibitors of collagenase was determined by the method of Cawston and Barrett (Anal. Biochem. 99, 340–345, 1979), hereby incorporated by reference, whereby a 1 mM solution of the inhibitor being tested or dilutions thereof, was incubated at 37° C. for 18 h with collagen and human recombinant collagenase, from synovial fibroblasts cloned, expressed and purified from E. Coli, (buffered with 150 mM Tris, pH 7.6, containing 15 mM calcium chloride, 0.05% Brij 35, 200 mM sodium chloride and 0.02% sodium azide). The collagen was acetylated ^3H type 1 bovine collagen prepared by the method of Cawston and Murphy (methods in Enzymology 80, 711, 1981) The samples were centrifuged to sediment undigested collagen and an aliquot of the radioactive supernatant removed for assay on a scintillation counter as a measure of hydrolysis. The collagenase activity in the presence of 1 mM inhibitor, or dilution thereof, was compared to activity in a control devoid of inhibitor and the results reported as that concentration effecting 50% of the collagenase (IC50).

[2] = tested on: CD23 cleavage activity (release of soluble CD23) in RPMI 8866 cell plasma membranes; assay: RPMI 8866 Cell Membrane CD23 Cleavage Activity Assay; type: biochemical, human; details: RPMI 8866 plasma membranes, 37° C., sCD23 by EIA; read-out: IC50, inhibition of production of sCD23
Method: Procedure 1: The ability of test compounds to inhibit the release of soluble CD23 was investigated by use of the following procedure.
RPMI 8866 Cell Membrane CD23 Cleavage Activity Assay:
Plasma membranes from RPMI 8866 cells, a human Epstein-Barr virus transformed B-cell line (Sarfati et al., Immunology 60 [1987] 539–547) expressing high levels of CD23 are purified using an aqueous extraction method. Cells resuspended in homogenization buffer (20 mM HEPES pH 7.4, 150 mM NaCl, 1.5 mM MgCl2, 1 mM DTT) are broken by N2 cavitation in a Parr bomb and the plasma membrane fraction mixed with other membranes is recovered by centrifugation at 10,000×g. […]
The fractionated membranes are incubated at 37° C. for times up to 4 hrs to produce fragments of CD23 which are separated from the membrane by filtration in 0.2 micron Durapore filter plates (Millipore) after quenching the assay with a non-selecitve MMP inhibitor, e.g. 5 uM Preparation 1 from WO 95/31457 ([4-(N-Hydroxyamino)-2-(R)-isobutyl-3-(S)-(2-thiophenethiomethyl)succinyl]-(S)-phenylalanine-N-methylamide sodium salt, prepared according to the procedure described in Example 11 of WO 90/05719). sCD23 released from the membrane is determined using the EIA kit from The Binding Site (Birmingham, UK) or a similar one utilising MHM6 anti-CD23 mAb [Rowe et al., Int. […]

CO[C@@H](C)C(CS(=O)(=O)Cc1cnc2ccccc2c1)N(O)C=O (stereo in doubt) [Example 2, N-[(2R,3S)-3-methoxy-1-(quinolin-3-yl-methanesulfonyl)butan-2-yl]-hydroxyformamide] was tested, and the IC50 (MMP-13) was 3000 nM.

Compound CO[C@H](C)[C@@H](CS(=O)(=O)Cc1cnc2ccccc2c1)N(O)C=O [Example 1, N-[(2S,3R)-3-methoxy-1-(quinolin-3-yl-methanesulfonyl)butan-2-yl]-hydroxyformamide] has an IC50 (MMP-13) of 2600 nM, an IC50 (MMP-3) of over 10000 nM and an IC50 [1] of over 10000 nM. It also gave an IC50 [2] of 20 nM.
